Reference: article PMC7305224, “Mutually stabilizing interactions between proto-peptides and RNA” (Nature Communications, 2020)
Non-standard residues stand in square brackets, D forms with d. Residues, ends and D or L forms follow the SMILES beside them. *: point of attachment. 5FAM = O=C1OC2(c3ccc(O)cc3Oc3cc(O)ccc32)c2ccc(C(=O)*)cc21; Dab = NCC[C@H](N)C(=O)O; Lac = C[C@H](O)C(=O)O

What was measured:
5′-Cy5-U20 RNA = test: Gel mobility (band) shift assay; format: binding; conditions: 66.6–530 µM FAM-labeled sequence, 5′-Cy5-U20 RNA 26.6 µM, MES-TEA buffer pH 6, 12% native polyacrylamide gel
Procedure: The gel was cropped at the edges for clarity. […] Spectra were recorded in 100 mM MES-TEA buffer (pH 6). d Plot of the change in CD signal at 266 nm as a function of increasing concentrations of depsipeptide 14. Red and blue colors of the filled circles correspond to curves of the same color in panel (c). […] […] An addition of 1.25 µL of glycerol brought the sample volume to a total of 3.75 µL. Samples were loaded onto a 12% native polyacrylamide gel, run at 100 V for 90 min, and imaged using Azure Biosystems c430.

[1] = system: RNA duplex 1 (5′-rCrGrCrUrArArArUrCrG-3′ & 5′-rCrGrArUrUrUrArGrCrG-3′); test: RNA thermal denaturation (Tm) by UV hyperchromicity at 260 nm with synthetic peptides/depsipeptides, RNA duplex 1; format: binding; conditions: for RNA duplex 1 Tm: observed Tm, peptide/depsipeptide 80 mM (so in the source), pH 7.0, mean ± SD; for RNA duplex 1 ΔTm: peptide/depsipeptide 80 μM, pH 7.0, 10 mM phosphate, 100 mM NaCl

Compound | band shift of RNA in gel mobility shift assay (5′-Cy5-U20 RNA) | RNA duplex 1 Tm [1] | RNA duplex 1 ΔTm [1]
C[C@H](NC(=O)CNC(=O)c1ccc2c(c1)C(=O)OC21c2ccc(O)cc2Oc2cc(O)ccc21)C(=O)N[C@@H](CCN)C(=O)N[C@@H](CCCCN)C(=O)N[C@@H](C)C(=O)N[C@@H](CCN)C(=O)N[C@@H](CCCCN)C(=O)N[C@@H](C)C(=O)N[C@@H](CCN)C(=O)N[C@@H](CCCCN)C(=O)O[C@@H](C)C(=O)N[C@@H](CCN)C(=O)N[C@@H](CCCCN)C(=O)N[C@@H](C)C(=O)N[C@@H](CCN)C(=O)N[C@@H](CCCCN)C(N)=O [compound 13, 5-FAM-Gly-Ala-Dab-Lys-Ala-Dab-Lys-Ala-Dab-Lys-lac-Dab-Lys-Ala-Dab-Lys NH2] (5FAM-GA[Dab]KA[Dab]KA[Dab]K[Lac][Dab]KA[Dab]K-NH2) | concentration-dependent band shift | 56.0 ± 0.8 °C | 12.2 °C
C[C@H](NC(=O)CNC(=O)c1ccc2c(c1)C(=O)OC21c2ccc(O)cc2Oc2cc(O)ccc21)C(=O)N[C@@H](CCN)C(=O)N[C@@H](CCCCN)C(=O)N[C@@H](C)C(=O)N[C@@H](CCN)C(=O)N[C@@H](CCCCN)C(=O)N[C@@H](C)C(=O)N[C@@H](CCN)C(=O)N[C@@H](CCCCN)C(=O)N[C@@H](C)C(=O)N[C@@H](CCN)C(=O)N[C@@H](CCCCN)C(=O)N[C@@H](C)C(=O)N[C@@H](CCN)C(=O)N[C@@H](CCCCN)C(N)=O [compound 12, 5-FAM-Gly-Ala-Dab-Lys-Ala-Dab-Lys-Ala-Dab-Lys-Ala-Dab-Lys-Ala-Dab-Lys NH2] (5FAM-GA[Dab]KA[Dab]KA[Dab]KA[Dab]KA[Dab]K-NH2) | concentration-dependent band shift | 54.4 ± 0.6 °C | 10.6 °C
